Experimental data reported in patent US20200071326A1, “TAM KINASE INHIBITORS” (Syros Pharmaceuticals, Inc., priority 2017, published 2020).
pKi: −log10 of the molar value. Structures can show the parent of a compound that is named as a salt.

Experiments:
[1] = molecular target: T1, AXL (Homo sapiens, UniProt P30530); assay: IMAP fluorescence polarization kinase assay, AXL; type: biochemical; conditions: ATP 24.7 μM, enzyme 2.5 nM, 240 minutes, read-out: AXL inhibitory constant (Ki)
T1 sequence (P30530 26-894): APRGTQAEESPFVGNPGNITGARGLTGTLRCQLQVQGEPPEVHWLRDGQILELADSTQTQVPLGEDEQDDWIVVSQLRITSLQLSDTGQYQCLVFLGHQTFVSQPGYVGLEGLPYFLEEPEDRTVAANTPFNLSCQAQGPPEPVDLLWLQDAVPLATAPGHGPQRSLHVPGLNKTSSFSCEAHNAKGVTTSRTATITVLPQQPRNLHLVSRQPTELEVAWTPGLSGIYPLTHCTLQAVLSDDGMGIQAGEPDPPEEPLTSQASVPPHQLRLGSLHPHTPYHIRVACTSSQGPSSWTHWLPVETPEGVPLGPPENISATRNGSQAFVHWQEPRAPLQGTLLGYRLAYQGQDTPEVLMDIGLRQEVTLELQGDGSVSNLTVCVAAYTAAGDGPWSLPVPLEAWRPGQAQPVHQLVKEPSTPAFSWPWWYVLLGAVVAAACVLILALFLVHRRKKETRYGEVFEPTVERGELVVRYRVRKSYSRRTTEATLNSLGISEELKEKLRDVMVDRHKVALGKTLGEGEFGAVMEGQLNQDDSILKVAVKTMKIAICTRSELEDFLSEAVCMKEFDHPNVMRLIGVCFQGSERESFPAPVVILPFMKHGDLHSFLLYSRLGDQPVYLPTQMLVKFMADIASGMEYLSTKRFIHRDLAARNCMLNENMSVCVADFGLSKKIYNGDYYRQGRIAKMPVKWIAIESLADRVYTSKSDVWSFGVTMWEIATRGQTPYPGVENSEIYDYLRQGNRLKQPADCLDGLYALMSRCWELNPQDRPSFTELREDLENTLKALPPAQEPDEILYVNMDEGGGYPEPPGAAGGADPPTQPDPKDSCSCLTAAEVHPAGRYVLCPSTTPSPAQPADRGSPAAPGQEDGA
Experimental: (§1) Activities of compounds against each of TYRO3, AXL, and MERTK as well as against FLT3, were determined using an immobilized metal ion affinity-based fluorescence polarization (“IMAP”) assay. A fluorescently-labeled substrate peptide was phosphorylated in the kinase reaction, after which a binding solution containing large trivalent metal-based nanoparticles was added and the phosphorylated substrate binds to these beads. This reduces the rotational speed of the substrate which is then detected using fluorescence polarization as a read-out.
(§2) The substrates used for each enzyme are as follows: AXL: 5F1-KKKKEEIYFFFG-NH2(SEQ ID NO:1); FLT3: 5F1-KKKKEEIYFFF-NH2 (SEQ ID NO:2); MERTK: 5F1-EFPIYDFLPAKKK-NH2 (SEQ ID NO:3); and TYRO3: 5F1-EFPIYDFLPAKKK-NH2 (SEQ ID NO:4).
(§3) This assay was performed in a 384-well, polystyrene microplate in a final volume of 8 μl. Substrate (final concentration=400 nM), ATP (final concentrations=24.7μM for AXL; 2.74 μM for FLT3; 2.69 μM for MERTK; and 54.0 μM for TYRO3), compounds and enzyme (final concentrations=2.5 nM for AXL, FLT3 and TYRO3; 1.5 nM for MERTK) were pipetted in this order into the appropriate reaction buffer (AXL: 50 mM HEPES, pH 8.0, 1 mM DTT, 10 mM MgCl2, 0.01% BRU35, 0.01% Triton X-100; FLT3: 50 mM HEPES, pH 8.0, 1 mM DTT, 10 mM MgCl2, 0.01% Triton X-100, 0.01% NP40; MERTK/TYRO3: 50 mM HEPES, pH 8.0, 1 mM DTT, 10 mM MgCl2, 0.01% Triton X-100) and incubated at room temperature for varying times (AXL, FLT3 and MERTK: 240 minutes; TYRO3: 60 minutes). IMAP binding solution was then dispensed, the plate incubated for 60 minutes at room temperature and the fluorescence polarization measured. Data were analyzed using XLfit.

[2] = molecular target: T2, FLT3 (Homo sapiens, UniProt P36888); assay: IMAP fluorescence polarization kinase assay, FLT3; type: biochemical; conditions: ATP 2.74 μM, enzyme 2.5 nM, 240 minutes, read-out: FLT3 inhibitory constant (Ki)
T2 sequence (P36888 27-993): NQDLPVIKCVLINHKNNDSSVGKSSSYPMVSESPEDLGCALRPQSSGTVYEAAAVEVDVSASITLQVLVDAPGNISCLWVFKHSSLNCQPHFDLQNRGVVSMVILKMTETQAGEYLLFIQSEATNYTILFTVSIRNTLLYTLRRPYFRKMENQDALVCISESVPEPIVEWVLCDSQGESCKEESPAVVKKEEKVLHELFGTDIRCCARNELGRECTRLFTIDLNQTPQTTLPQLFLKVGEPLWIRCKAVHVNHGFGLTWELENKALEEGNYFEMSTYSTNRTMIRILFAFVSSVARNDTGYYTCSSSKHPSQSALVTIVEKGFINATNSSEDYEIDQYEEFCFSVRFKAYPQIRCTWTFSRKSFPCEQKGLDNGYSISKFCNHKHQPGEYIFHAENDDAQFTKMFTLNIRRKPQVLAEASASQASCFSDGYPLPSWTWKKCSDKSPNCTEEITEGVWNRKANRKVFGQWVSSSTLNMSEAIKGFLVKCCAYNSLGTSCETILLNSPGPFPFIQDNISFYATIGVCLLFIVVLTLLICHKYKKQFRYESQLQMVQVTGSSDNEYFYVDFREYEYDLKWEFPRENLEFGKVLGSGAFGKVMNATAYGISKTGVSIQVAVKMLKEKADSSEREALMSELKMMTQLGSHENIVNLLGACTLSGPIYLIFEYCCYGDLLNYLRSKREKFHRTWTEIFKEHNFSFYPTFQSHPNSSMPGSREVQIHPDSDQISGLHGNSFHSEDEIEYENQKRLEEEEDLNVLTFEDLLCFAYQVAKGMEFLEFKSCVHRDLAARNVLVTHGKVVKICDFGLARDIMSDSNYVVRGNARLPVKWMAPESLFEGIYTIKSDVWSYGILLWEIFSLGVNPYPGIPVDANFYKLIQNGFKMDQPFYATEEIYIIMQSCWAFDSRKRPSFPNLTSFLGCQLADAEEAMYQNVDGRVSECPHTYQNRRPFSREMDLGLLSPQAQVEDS
Experimental: as §1, §2, §3

Row | SMILES | pKi [1] | pKi [2]
1 | Cc1cc2c(N[C@H]3CC[C@H](N)CC3)c(C(=O)Nc3ccc(F)cc3)cnc2[nH]1 [Compound 103] | 6.00 to 7.00 | > 7.00
2 | CCCc1cc2c(N[C@H]3CC[C@H](O)CC3)c(-c3ccc(CN4CCOCC4)cn3)cnc2[nH]1 [Compound 105] | 6.00 to 7.00 | > 7.00
3 | CCCc1cc2c(N[C@H]3CC[C@H](O)CC3)c(-c3ccc(CN4CCOCC4)cc3)cnc2[nH]1 [Compound 106, (1r,4r)-4-((5-(4-(morpholinomethyl)phenyl)-2-propyl-1H-pyrrolo[2,3-b]pyridin-4-yl)amino)cyclohexanol hydrochloride] | < 5.00 | 6.00 to 7.00
4 | CCCc1cc2c(N[C@H]3CC[C@H](N)CC3)c(-c3cnn(C)c3)cnc2[nH]1 [Compound 108, (1r,4r)-N1-(5-(1-methyl-1H-pyrazol-4-yl)-2-propyl-1H-pyrrolo[2,3-b]pyridine-4-yl)cyclohexane-1,4-diamine hydrochloride] | 5.00 to 6.00 | 6.00 to 7.00
5 | N[C@H]1CC[C@H](Nc2c(C(=O)NCc3ccc(-n4ccnc4)cc3)cnc3[nH]c(-c4ccccc4)cc23)CC1 [Compound 110] | 5.00 to 6.00 | 5.00 to 6.00
6 | CCCc1cc2c(N[C@H]3CC[C@H](N)CC3)c(-c3cc(NC)ncn3)cnc2[nH]1 [Compound 111, (1r,4r)-N^1-(5-(6-(methylamino)pyrimidin-4-yl)-2-propyl-1H-pyrrolo[2,3-b]pyridine-4-yl)cyclohexane-1,4-diamine hydrochloride] | 6.00 to 7.00 | > 7.00
7 | CCCc1cc2c(N[C@H]3CC[C@H](N)CC3)c(-c3cc(NC(C)C)ncn3)cnc2[nH]1 [Compound 112] | 6.00 to 7.00 | > 7.00
8 | CCCc1cc2c(N[C@H]3CC[C@H](N)CC3)c(-c3ccc(S(=O)(=O)N4CCOCC4)cn3)cnc2[nH]1 [Compound 115] | > 7.00 | > 7.00
9 | CCCc1cc2c(N[C@H]3CC[C@H](N)CC3)c(-c3cc(N)ncn3)cnc2[nH]1 [Compound 116] | 6.00 to 7.00 | > 7.00
10 | CCCc1cc2c(N[C@H]3CC[C@H](N)CC3)c(-c3nccs3)cnc2[nH]1 [Compound 117] | 6.00 to 7.00 | > 7.00
11 | CCCc1cc2c(N[C@H]3CC[C@H](N)CC3)c(-c3ccnc(N4CCCC4)n3)cnc2[nH]1 [Compound 118, (1r,4r)-N1-(2-propyl-5-(2-(pyrrolidin-1-yl)pyrimidin-4-yl)-1H-pyrrolo[2,3-b]pyridine-4-yl)cyclohexane-1,4-diamine hydrochloride] | 6.00 to 7.00 | > 7.00
12 | CCc1cc2c(N[C@H]3CC[C@H](N)CC3)c(C(=O)NCc3ccc(-n4ccnc4)cc3)cnc2[nH]1 [Compound 119, N-(4-(1H-imidazol-1-yl)benzyl)-4-(((1r,4r)-4-aminocyclohexyl)amino)-2-ethyl-1H-pyrrolo[2,3-b]pyridine-5-carboxamide] | 6.00 to 7.00 | > 7.00
13 | CCCc1cc2c(N[C@H]3CC[C@H](N)CC3)c(C(=O)NC3CCOCC3)cnc2[nH]1 [Compound 124] | 6.00 to 7.00 | 6.00 to 7.00
14 | CCCc1cc2c(N[C@H]3CC[C@H](O)CC3)c(-c3ccc(CN4CCCC4)cn3)cnc2[nH]1 [Compound 125] | 6.00 to 7.00 | > 7.00
15 | N[C@H]1CC[C@H](Nc2c(C(=O)NCc3ccc(-n4ccnc4)cc3)cnc3[nH]c(C4CCCC4)cc23)CC1 [Compound 126] | 6.00 to 7.00 | > 7.00

Results, then the compound that gave them:

Row | pKi [1] | pKi [2] | SMILES
16 | 5.00 to 6.00 | > 7.00 | CCCc1cc2c(N[C@H]3CC[C@H](N)CC3)c(C(=O)Nc3ccc(F)cc3)cnc2[nH]1 [Compound 100, 4-(((1r,4r)-4-aminocyclohexyl)amino)-N-(4-fluorophenyl)-2-propyl-1H-pyrrolo [2,3-b]pyridine-5-carboxamide hydrochloride]
17 | < 5.00 | 6.00 to 7.00 | CCCc1cc2c(N[C@H]3CC[C@H](O)CC3)c(C(=O)Nc3ccc(F)cc3)cnc2[nH]1 [Compound 101]
18 | 6.00 to 7.00 | > 7.00 | CCCc1cc2c(N[C@H]3CC[C@H](O)CC3)c(C(=O)NCc3ccc(-n4ccnc4)cc3)cnc2[nH]1 [Compound 102]
19 | 5.00 to 6.00 | 6.00 to 7.00 | CCCc1cc2c(N[C@H]3CC[C@H](O)CC3)c(C(=O)NC3CCN(c4ncccn4)CC3)cnc2[nH]1 [Compound 104]
20 | 5.00 to 6.00 | 6.00 to 7.00 | CCCc1cc2c(N[C@H]3CC[C@H](O)CC3)c(-c3cnn(CCN(C)C)c3)cnc2[nH]1 [Compound 107]
21 | 6.00 to 7.00 | > 7.00 | CCCc1cc2c(N[C@H]3CC[C@H](O)CC3)c(-c3ccc(CNCC45C[C@H]6C[C@@H](C4)C[C@@H](C5)C6)cn3)cnc2[nH]1 [Compound 109]
22 | 5.00 to 6.00 | > 7.00 | CCCc1cc2c(N[C@H]3CC[C@H](N)CC3)c(-c3ccccn3)cnc2[nH]1 [Compound 113]
23 | 6.00 to 7.00 | > 7.00 | CCCc1cc2c(N[C@H]3CC[C@H](N)CC3)c(-c3ccc(F)cn3)cnc2[nH]1 [Compound 114]
24 | 5.00 to 6.00 | > 7.00 | CCCc1cc2c(N[C@H]3CC[C@H](N)CC3)c(-c3ccc(N)cn3)cnc2[nH]1 [Compound 120]
25 | 6.00 to 7.00 | > 7.00 | CCCc1cc2c(N[C@H]3CC[C@H](N)CC3)c(C(=O)NCc3ccc(-n4ccnc4)cc3)cnc2[nH]1 [Compound 121]
26 | 6.00 to 7.00 | > 7.00 | CCCc1cc2c(N[C@H]3CC[C@H](N)CC3)c(-c3cc(OC)ncn3)cnc2[nH]1 [Compound 122]
27 | > 7.00 | > 7.00 | CCCc1cc2c(N[C@H]3CC[C@H](N)CC3)c(-c3ccnc(N)n3)cnc2[nH]1 [Compound 123]
28 | 6.00 to 7.00 | > 7.00 | CCCc1cc2c(N[C@H]3CC[C@H](N)CC3)c(-c3ccc(C)nn3)cnc2[nH]1 [Compound 127]
